≈ marks a conversion by molar mass, not a printed value. Where “and” joins values, the source holds several entries; their conditions need not be identical. Equal values may be shown once. Read-outs that look alike come from different tables or passages of the source.
Legend:
S. cerevisiae = assay: Broth dilution MIC/MFC; type: cell-based, Saccharomyces cerevisiae; conditions: for MFC / MIC: Saccharomyces cerevisiae; for MFC: read-out: MFC S. cerevisiae; for MIC: read-out: MIC S. cerevisiae
C. albicans [1] = assay: Broth dilution MIC/MFC; type: cell-based, Candida albicans; conditions: for MFC / MIC: Candida albicans; for MFC: read-out: MFC C. albicans; for MIC: read-out: MIC C. albicans, broth dilution; for MIC C. albicans: broth dilution
E. cloacae = assay: Broth dilution MIC/MBC; type: cell-based, Enterobacter cloacae; conditions: for MBC / MIC: Enterobacter cloacae; for MBC: read-out: MBC E. cloacae; for MIC: read-out: MIC E. cloacae
S. faecalis = assay: Broth dilution MIC/MBC; type: cell-based, Streptococcus faecalis; conditions: for MBC / MIC: Enterococcus faecalis; for MBC: read-out: MBC S. faecalis; for MIC: read-out: MIC S. faecalis
B. pumilus = assay: Broth dilution MIC/MBC; type: cell-based, Bacillus pumilus; conditions: for MBC / MIC: Bacillus pumilus; for MBC: read-out: MBC B. pumilus; for MIC: read-out: MIC B. pumilus
E. coli [2] = assay: Broth dilution MIC/MBC; type: cell-based, Escherichia coli; conditions: for MBC / MIC: Escherichia coli; for MBC: read-out: MBC E. coli; for MIC: read-out: MIC E. coli
E. coli [3] = assay: Time-kill kinetic test; type: cell-based; conditions: 1x MIC
DNA gyrase A = DNA gyrase A (Escherichia coli, UniProt P0AES4); assay: DNA gyrase supercoiling assay; type: biochemical; conditions: IC50 ± SD DNA gyrase A, E. coli DNA gyrase supercoiling
WI38 cells = assay: In vitro cytotoxicity MTT assay; conditions: Homo sapiens, WI-38, 48 h, read-out: WI-38 IC50 ± SD
Escherichia coli = conditions: cited from earlier work
C. albicans [4] = conditions: cited from earlier work

Sequence of DNA gyrase A (P0AES4 whole entry): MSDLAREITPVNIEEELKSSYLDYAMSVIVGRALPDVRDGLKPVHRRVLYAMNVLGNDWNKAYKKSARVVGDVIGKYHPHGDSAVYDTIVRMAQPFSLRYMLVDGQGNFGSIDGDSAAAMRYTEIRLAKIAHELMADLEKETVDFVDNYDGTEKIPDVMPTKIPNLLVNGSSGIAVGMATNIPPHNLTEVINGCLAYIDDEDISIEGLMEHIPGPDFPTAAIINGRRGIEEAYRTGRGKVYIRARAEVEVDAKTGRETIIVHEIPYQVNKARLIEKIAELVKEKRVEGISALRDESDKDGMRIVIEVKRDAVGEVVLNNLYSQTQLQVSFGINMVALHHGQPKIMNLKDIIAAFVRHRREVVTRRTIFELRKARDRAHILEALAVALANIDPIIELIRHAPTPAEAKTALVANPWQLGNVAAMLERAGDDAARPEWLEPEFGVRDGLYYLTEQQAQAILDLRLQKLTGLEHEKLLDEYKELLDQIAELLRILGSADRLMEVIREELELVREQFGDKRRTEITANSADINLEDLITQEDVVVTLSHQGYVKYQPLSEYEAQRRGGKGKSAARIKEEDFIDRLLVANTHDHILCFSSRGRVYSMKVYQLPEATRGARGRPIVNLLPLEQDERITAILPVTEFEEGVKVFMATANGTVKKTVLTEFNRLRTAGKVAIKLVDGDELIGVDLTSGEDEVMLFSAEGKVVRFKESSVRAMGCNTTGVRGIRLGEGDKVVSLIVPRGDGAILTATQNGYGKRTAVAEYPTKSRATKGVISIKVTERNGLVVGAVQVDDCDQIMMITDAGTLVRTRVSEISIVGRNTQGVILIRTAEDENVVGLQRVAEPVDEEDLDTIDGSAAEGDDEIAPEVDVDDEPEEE

Row | Compound | MFC/ MIC ratio S. cerevisiae (S. cerevisiae) | MFC (S. cerevisiae) | MIC (S. cerevisiae) | MFC/ MIC ratio C. albicans (C. albicans [1]) | MFC (C. albicans [1]) | MIC (C. albicans [1]) | MBC/ MIC ratio E. cloacae (E. cloacae) | MBC (E. cloacae) | MIC (E. cloacae) | MBC/ MIC ratio S. faecalis (S. faecalis) | MBC (S. faecalis) | MIC (S. faecalis) | MBC/ MIC ratio B. pumilus (B. pumilus) | MBC (B. pumilus) | MIC (B. pumilus) | MBC/ MIC ratio E. coli (E. coli [2]) | MBC (E. coli [2]) | MIC (E. coli [2]) | further results
1 | N#Cc1c(-c2ccc(OCc3ccccc3)cc2)c(C(N)=S)c(N)n(N)c1=O [Compound 4d, 1,2-diamino-4-(4-(benzyloxy)phenyl)-5-cyano-6-oxo-1,6-dihydropyridine-3-carbothioamide] | 2 | 62.5 µg/mL (≈ 160 µM) | 31.3 µg/mL (≈ 80 µM) | 2 | 125 µg/mL (≈ 319 µM) | 31.3 µg/mL (≈ 80 µM) | 2 | 125 µg/mL (≈ 319 µM) | 62.5 µg/mL (≈ 160 µM) | 2 | 62.5 µg/mL (≈ 160 µM) | 31.3 µg/mL (≈ 80 µM) | 4 | 31.3 µg/mL (≈ 80 µM) | 7.81 µg/mL (≈ 20 µM) | 4 | 31.3 µg/mL (≈ 80 µM) | 7.81 µg/mL (≈ 20 µM) | MIC C. albicans (C. albicans [1]): 62.5 µg/mL (≈ 160 µM)
2 | N#Cc1c(-c2ccc(Cl)cc2Cl)c(C(N)=S)c(N)n(N)c1=O [Compound 4b, 1,2-diamino-5-cyano-4-(2,4-dichlorophenyl)-6-oxo-1,6-dihydropyridine-3-carbothioamide] | 4 | 500 µg/mL (≈ 1410 µM) | 125 µg/mL (≈ 353 µM) |  | 62.5 µg/mL (≈ 176 µM) | 31.3 µg/mL (≈ 88.4 µM) |  | 125 µg/mL (≈ 353 µM) | 31.3 µg/mL (≈ 88.4 µM) |  | 125 µg/mL (≈ 353 µM) | 31.3 µg/mL (≈ 88.4 µM) | 2 | 62.5 µg/mL (≈ 176 µM) | 31.3 µg/mL (≈ 88.4 µM) |  | 62.5 µg/mL (≈ 176 µM) | 7.81 µg/mL (≈ 22 µM) | 
3 | gentamycin [reference compound] |  |  |  |  |  |  |  |  |  |  |  |  |  |  |  |  |  |  | Time to bactericidal activity against E. coli (E. coli [3]): 90 to 120 min and 120 min
4 | CC(=O)Oc1ccc(-c2c(C(N)=O)c(N)n(N)c(=O)c2C#N)cc1 [Compound 3e, 4-(1,6-diamino-5-carbamoyl-3-cyano-2-oxo-1,2-dihydropyridin-4-yl)phenyl acetate] | 2 | 125 µg/mL | 62.5 µg/mL | 2 | 125 µg/mL | 62.5 µg/mL | 4 | 62.5 µg/mL | 15.6 µg/mL | 2 | 62.5 µg/mL | 31.3 µg/mL | 2 | 125 µg/mL | 62.5 µg/mL | 4 | 15.6 µg/mL | 3.91 µg/mL | IC50 (DNA gyrase A): 11.5 µM; IC50 (WI38 cells): 43.2 ± 1.7 µM; Time to bactericidal activity against E. coli (E. coli [3]): 90 to 120 min and 120 min
5 | CN(C)c1ccc(-c2c(C(N)=S)c(N)n(N)c(=O)c2C#N)cc1 [Compound 4c, 1,2-diamino-5-cyano-4-(4-(dimethylamino)phenyl)-6-oxo-1,6-dihydropyridine-3-carbothioamide] | 2 | 125 µg/mL (≈ 381 µM) | 62.5 µg/mL (≈ 190 µM) | 4 | 62.5 µg/mL (≈ 190 µM) | 15.6 µg/mL (≈ 47.5 µM) | 4 | 250 µg/mL (≈ 761 µM) | 62.5 µg/mL (≈ 190 µM) | 4 | 31.3 µg/mL (≈ 95.3 µM) | 7.81 µg/mL (≈ 23.8 µM) | 2 | 125 µg/mL (≈ 381 µM) | 62.5 µg/mL (≈ 190 µM) | 4 | 125 µg/mL (≈ 381 µM) | 31.3 µg/mL (≈ 95.3 µM) | 
6 | Cc1c(C(N)=O)c(N)n(N)c(=O)c1C#N [Compound 3a, 1,2-diamino-5-cyano-4-methyl-6-oxo-1,6-dihydropyridine-3-carboxamide] | 4 | 125 µg/mL (≈ 603 µM) | 31.3 µg/mL (≈ 151 µM) | 4 | 500 µg/mL (≈ 2410 µM) |  | 8 | 31.3 µg/mL (≈ 151 µM) | 3.91 µg/mL (≈ 18.9 µM) | 4 | 31.3 µg/mL (≈ 151 µM) | 7.81 µg/mL (≈ 37.7 µM) | 4 | 125 µg/mL (≈ 603 µM) | 31.3 µg/mL (≈ 151 µM) | 4 | 62.5 µg/mL (≈ 302 µM) | 15.6 µg/mL (≈ 75.3 µM) | 
7 | CC(=O)N1CCN(c2ccc(OCC3COC(Cn4ccnc4)(c4ccc(Cl)cc4Cl)O3)cc2)CC1 (stereo not drawn) [Keto., Ketoconazole, reference compound] |  | 15.6 µg/mL (≈ 29.4 µM) | 1.95 µg/mL (≈ 3.67 µM) |  | 31.3 µg/mL (≈ 58.9 µM) | 1.95 µg/mL (≈ 3.67 µM) |  |  |  |  |  |  |  |  |  |  |  |  | 
8 | N#Cc1c(-c2ccc(Cl)cc2Cl)c(C(N)=O)c(N)n(N)c1=O [Compound 3b, 1,2-diamino-5-cyano-4-(2,4-dichlorophenyl)-6-oxo-1,6-dihydropyridine-3-carboxamide] | 2 | 250 µg/mL (≈ 739 µM) | 125 µg/mL (≈ 370 µM) | 2 | 125 µg/mL (≈ 370 µM) | 62.5 µg/mL (≈ 185 µM) | 4 | 125 µg/mL (≈ 370 µM) | 31.3 µg/mL (≈ 92.6 µM) | 2 | 62.5 µg/mL (≈ 185 µM) | 31.3 µg/mL (≈ 92.6 µM) | 2 | 31.3 µg/mL (≈ 92.6 µM) | 15.6 µg/mL (≈ 46.1 µM) | 4 | 31.3 µg/mL (≈ 92.6 µM) | 7.81 µg/mL (≈ 23.1 µM) | 
9 | CC1(C)S[C@@H]2[C@H](NC(=O)Cc3ccccc3)C(=O)N2[C@H]1C(=O)O [Pen. G, Penicillin G, reference compound] |  |  |  |  |  |  |  |  |  | 2 | 62.5 µg/mL (≈ 187 µM) | 31.5 µg/mL (≈ 94.2 µM) | 2 | 125 µg/mL (≈ 374 µM) | 62.5 µg/mL (≈ 187 µM) |  |  |  | 
10 | CN(C)c1ccc(-c2c(C(N)=O)c(N)n(N)c(=O)c2C#N)cc1 [Compound 3c, 1,2-diamino-5-cyano-4-(4-(dimethylamino)phenyl)-6-oxo-1,6-dihydropyridine-3-carboxamide] | 4 | 125 µg/mL (≈ 400 µM) | 31.3 µg/mL (≈ 100 µM) | 2 | 125 µg/mL (≈ 400 µM) | 31.3 µg/mL (≈ 100 µM) | 2 | 125 µg/mL (≈ 400 µM) | 62.5 µg/mL (≈ 200 µM) | 2 | 125 µg/mL (≈ 400 µM) | 62.5 µg/mL (≈ 200 µM) | 4 | 62.5 µg/mL (≈ 200 µM) | 15.6 µg/mL (≈ 49.9 µM) | 4 | 62.5 µg/mL (≈ 200 µM) | 15.6 µg/mL (≈ 49.9 µM) | MIC C. albicans (C. albicans [1]): 62.5 µg/mL (≈ 200 µM)
11 | Cc1c(C(N)=S)c(N)n(N)c(=O)c1C#N [Compound 4a, 1,2-diamino-5-cyano-4-methyl-6-oxo-1,6-dihydropyridine-3-carbothioamide] | 8 | 500 µg/mL (≈ 2240 µM) | 62.5 µg/mL (≈ 280 µM) |  | 62.5 µg/mL (≈ 280 µM) | 31.3 µg/mL (≈ 140 µM) | 2 | 125 µg/mL (≈ 560 µM) | 62.5 µg/mL (≈ 280 µM) | 4 | 62.5 µg/mL (≈ 280 µM) | 15.6 µg/mL (≈ 69.9 µM) | 2 | 125 µg/mL (≈ 560 µM) | 62.5 µg/mL (≈ 280 µM) | 2 | 31.3 µg/mL (≈ 140 µM) | 15.6 µg/mL (≈ 69.9 µM) | 
12 | CC1COc2c(N3CCN(C)CC3)c(F)cc3c(=O)c(C(=O)O)cn1c23 (stereo not drawn) [ofloxacin] |  |  |  |  |  |  |  |  |  |  |  |  |  |  |  |  |  |  | IZ E. coli (Escherichia coli): 24 mm
13 | C[C@@H]1[C@H](O)[C@@H](C)/C=C/C=C/CC/C=C/C=C/C=C/C=C/C(O[C@H]2O[C@H](C)[C@@H](O)[C@H](N)[C@@H]2O)CC2O[C@](O)(CC(O)C(O)CCC(O)CC(O)CC(O)CC(=O)O[C@H]1C)CC(O)C2C(=O)O (stereo partly drawn) [nystatin] |  |  |  |  |  |  |  |  |  |  |  |  |  |  |  |  |  |  | MIC C. albicans (C. albicans [4]): 1.95 µg/mL (≈ 2.11 µM)
